What was measured:
[1] = system: clinically stable subjects with schizophrenia; assay: Clinical Study A (Phase 2a, placebo-controlled): MATRICS Consensus Cognitive Battery (MCCB); format: in vivo, human
Description: A Phase 2a proof-of-concept (POC) study in clinically stable subjects with schizophrenia who were clinically stable and received stable doses of atypical antipsychotic therapy. The study was a Phase 2, multi-center, randomized, double-blind, placebo-controlled, parallel group study designed to evaluate the safety and efficacy of doses of (4s)-4-(5-phenyl-1,3,4-thiadiazol-2-yloxy)-1-azatricyclo[3.3.1.1^3,7]decane (Compound A) in clinically stable male and female subjects (ages 20 to 55, inclusive) with a Diagnostic and Statistical Manual of Mental Disorders Fourth Edition, Text Revision (DSM-IV-TR) diagnosis of schizophrenia. Psychiatric diagnoses were confirmed using the Mini-International Neuropsychiatric Interview (MINI) version 6.0.0. The criteria for clinical stability was determined by a combination of retrospective data (over the 4 months prior to the start of Screening, which will be supported by clinical records, patient, identified responsible contact person, and physician interviews), and prospective data assessed during the Prospective Stabilization Period of 28 to 42 days duration.
The study was a Phase 2, multi-center, randomized, double-blind, placebo-controlled, parallel group study designed to evaluate the safety and efficacy of doses of (4s)-4-(5-phenyl-1,3,4-thiadiazol-2-yloxy)-1-azatrieyclo[3.3.1.1^3,7]decane, which is also recognized as Compound A, in treating cognitive deficits in subjects with schizophrenia who were clinically stable and receiving one or two atypical antipsychotic medications. Study drug was administered orally.
The study consisted of a screening period of at least 28 and up to 42 days, a 84-day outpatient treatment period, a 14-day post-treatment period, and a post-treatment follow-up period. The screening period consisted of three visits: Screening Visit 1, Screening Visit 2, and Day −1. Upon completion of Day −1 procedures, eligible subjects were randomized through an Interactive Voice Response/Interactive Web-Based (IVR/IWB) system. Subjects were randomized in an equal ratio to one of three treatment groups (placebo, 10 mg Compound A, or 25 mg Compound A).
Subjects were randomized in a 1:1:1 ratio with placebo, 10 mg QD Compound A, of 25 mg Compound A. Each subject was instructed to take study drug once-daily in the morning for 12 weeks. Each daily dose was preferably taken with food. The subject and investigator were blinded to the treatment assignment throughout the study. The treatment assignments for the study subjects are shown below in Table 1.
The primary endpoint was the MCCB composite score, and the primary endpoint analysis was the change on the MCCB composite score from baseline to endpoint versus placebo. Other secondary measures included the MCCB domains, the NSA-16, the CANTAB cognition battery (measured at different time points from the MCCB), and the UPSA-2. The Positive and Negative Syndrome Scale (PANSS) was included to document stability in schizophrenia symptomatology.
The MCCB was developed by a consortium of academic, industry, the Food and Drug Administration (FDA) and National Institute of Mental Health ([…]) members called Measurement and Treatment Research to Improve Cognition in Schizophrenia (MATRICS). The battery was established in a multiple phase process that involved experts identifying cognitive tests in the literature that had shown deficits in schizophrenia, use of factor analysis to identify key domains of cognitive deficits in schizophrenia, and then empirically identifying the best tests for each domain based on reliability, validity and feasibility for use in clinical trials. The FDA has endorsed the MCCB as an appropriate outcome measure for Phase 3 CDS trials. […]

[2] = system: clinically stable subjects with schizophrenia; assay: as above; format: in vivo, human; settings: Phase 2a study; printed indication AD
[3] = 25 mg QD, Change to Week 2, ITT
[4] = 25 mg QD, Change to Week 6, ITT
[5] = 25 mg QD, Change to Week 12, ITT

## c1ccc(-c2nnc(O[C@@H]3C4CC5C[C@H]3C[N@](C5)C4)s2)cc1 [Compound A, (4s)-4-(5-phenyl-1,3,4-thiadiazol-2-yloxy)-1-azatricyclo[3.3.1.1^3,7]decane]
[1]; [3]
  MCCB Reasoning and Problem Solving: LS Mean (SE) of Change from Baseline: 1.95 (0.92) T-score
  MCCB Reasoning and Problem Solving: Observed Mean (SD) of change from baseline: 2.00 (6.25) T-score
[1]; [4]
  MCCB Attention/Vigilance: Difference from Placebo LS Mean (SE) of Difference: 1.71 (1.41) T-score
  MCCB Attention/Vigilance: LS Mean (SE) of Change from Baseline: 0.91 (1.06) T-score
  MCCB Attention/Vigilance: Observed Mean (SD) of change from baseline: 1.09 (9.04) T-score
  MCCB Reasoning and Problem Solving: Difference from Placebo LS Mean (SE) of Difference: 2.22 (1.08) T-score
  MCCB Reasoning and Problem Solving: LS Mean (SE) of Change from Baseline: 2.18 (0.81) T-score
  MCCB Reasoning and Problem Solving: Observed Mean (SD) of change from baseline: 2.11 (7.06) T-score
  MCCB Social Cognition: Difference from Placebo LS Mean (SE) of Difference: −1.21 (1.40) T-score
  MCCB Social Cognition: LS Mean (SE) of Change from Baseline: 0.30 (1.05) T-score
  MCCB Social Cognition: Observed Mean (SD) of change from baseline: 0.06 (8.00) T-score
  MCCB Speed of Processing: Difference from Placebo LS Mean (SE) of Difference: 1.84 (1.08) T-score
  MCCB Speed of Processing: LS Mean (SE) of Change from Baseline: 2.24 (0.80) T-score
  MCCB Speed of Processing: Observed Mean (SD) of change from baseline: 2.56 (5.36) T-score
  MCCB Verbal Learning: Difference from Placebo LS Mean (SE) of Difference: 0.49 (1.18) T-score
  MCCB Verbal Learning: LS Mean (SE) of Change from Baseline: 0.56 (0.88) T-score
  MCCB Verbal Learning: Observed Mean (SD) of change from baseline: 0.41 (9.24) T-score
  MCCB Visual Learning: Difference from Placebo LS Mean (SE) of Difference: −1.00 (1.65) T-score
  MCCB Visual Learning: LS Mean (SE) of Change from Baseline: −1.15 (1.22) T-score
  MCCB Visual Learning: Observed Mean (SD) of change from baseline: −1.06 (9.04) T-score
  MCCB Working Memory: Difference from Placebo LS Mean (SE) of Difference: 2.39 (1.08) T-score
  MCCB Working Memory: LS Mean (SE) of Change from Baseline: 1.88 (0.81) T-score
  MCCB Working Memory: Observed Mean (SD) of change from baseline: 1.69 (7.43) T-score
[1]; [5]
  MCCB Attention/Vigilance: Difference from Placebo LS Mean (SE) of Difference: 2.85 (1.57) T-score
  MCCB Attention/Vigilance: LS Mean (SE) of Change from Baseline: 0.86 (1.16) T-score
  MCCB Attention/Vigilance: Observed Mean (SD) of change from baseline: 0.88 (9.09) T-score
  MCCB Social Cognition: Difference from Placebo LS Mean (SE) of Difference: −0.40 (1.61) T-score
  MCCB Social Cognition: LS Mean (SE) of Change from Baseline: 0.19 (1.19) T-score
  MCCB Social Cognition: Observed Mean (SD) of change from baseline: −0.14 (10.81) T-score
  MCCB Speed of Processing: Difference from Placebo LS Mean (SE) of Difference: 0.37 (1.26) T-score
  MCCB Speed of Processing: LS Mean (SE) of Change from Baseline: 1.66 (0.93) T-score
  MCCB Speed of Processing: Observed Mean (SD) of change from baseline: 1.73 (7.28) T-score
  MCCB Verbal Learning: Difference from Placebo LS Mean (SE) of Difference: 1.80 (1.17) T-score
  MCCB Verbal Learning: LS Mean (SE) of Change from Baseline: 2.27 (0.87) T-score
  MCCB Verbal Learning: Observed Mean (SD) of change from baseline: 2.24 (8.03) T-score
  MCCB Visual Learning: Difference from Placebo LS Mean (SE) of Difference: 1.27 (1.68) T-score
  MCCB Visual Learning: LS Mean (SE) of Change from Baseline: 0.83 (1.23) T-score
  MCCB Visual Learning: Observed Mean (SD) of change from baseline: 1.24 (8.49) T-score
  MCCB Working Memory: Difference from Placebo LS Mean (SE) of Difference: 2.03 (1.25) T-score
  MCCB Working Memory: LS Mean (SE) of Change from Baseline: 2.14 (0.93) T-score
  MCCB Working Memory: Observed Mean (SD) of change from baseline: 1.98 (6.84) T-score
[1]; 25 mg, baseline to Week 6, MNIRIVI analysis, placebo LS mean +0.49
  MCCB composite score: LS mean change from baseline: +1.27
[1]; Week 6, 10 mg and 25 mg
  MCCB domains with LS mean difference versus placebo greater in both dose groups: 5 of the 7 MCCB domains
[1]; each dose group (10 mg, 25 mg), Week 6
  MCCB composite score: statistical significance of difference from placebo: did not reach the level of statistical significance
[1]; patients with schizophrenia, summary statement
  Effect on cognition: precognitive effects
[2]
  Signal for efficacy in symptomatic treatment: demonstrated a signal for efficacy

Source: patent US20130317055A1, “NEURONAL NICOTINIC AGONIST AND METHODS OF USE” (ABBVIE INC., priority 2012, published 2013)
